Assay results published in patent US4394503A, “Cephalosporin derivatives” (priority 1981, dated 1983).
≈ marks a conversion by molar mass, not a printed value. Where two headings read alike, the source gives them in different places.

How the values were obtained:
[1] = tested on: S. aureus Smith; experiment: MIC against selected test organisms (Table 2); type: cell-based; conditions: Staphylococcus aureus; Gp-Ia, PC-S; read-out: Minimum Inhibitory Concentration
[2] = tested on: P. aeruginosa A20717; experiment: MIC against selected test organisms (Table 2); type: cell-based; conditions: Pseudomonas aeruginosa
[3] = in vivo; conditions: mouse, im
Experimental: Blood samples were collected from the orbital sinuses into heparinized capillary tubes and assayed by the paper disc-agar diffusion method using E. coli as the test organism. The half-life values and areas under the curve were determined.

[4] = tested on: C. difficile A21675; experiment: MIC against selected test organisms (Table 2); type: cell-based; conditions: Clostridioides difficile
[5] = tested on: S. pyrogenes; experiment: In vitro activity against species of Streptococcus, Neisseria and Haemophilus (Table 3); type: cell-based; conditions: read-out: Geometric Mean of MIC
[6] = tested on: S. aureus A15092; experiment: MIC against selected test organisms (Table 2); type: cell-based; conditions: Staphylococcus aureus, Gp-Ib, PC-R, read-out: Minimum Inhibitory Concentration
[7] = tested on: B. fragilis A22021; experiment: MIC against selected test organisms (Table 2); type: cell-based; conditions: Bacteroides fragilis, A22021, read-out: Minimum Inhibitory Concentration
[8] = tested on: S. aureus A9497; experiment: MIC against selected test organisms (Table 2); type: cell-based; conditions: Staphylococcus aureus, Gp-Ia, PC-S, read-out: Minimum Inhibitory Concentration
[9] = tested on: B. fragilis A20928-1; experiment: MIC against selected test organisms (Table 2); type: cell-based; conditions: Bacteroides fragilis
[10] = tested on: Penicillin-sensitive S. aureus (Gp-Ia); experiment: In vitro antibacterial activity, two-fold agar dilution, Mueller-Hinton agar (Table 1), group Gp-Ia; type: cell-based; conditions: Staphylococcus aureus; read-out: Geometric Mean of MIC
[11] = tested on: S. aureus BX-1633; experiment: MIC against selected test organisms (Table 2); type: cell-based; conditions: Staphylococcus aureus, BX1633, read-out: Minimum Inhibitory Concentration
[12] = tested on: E. cloacae A9656; experiment: MIC against selected test organisms (Table 2); type: cell-based; conditions: Enterobacter cloacae, Gn-II, CET-R, read-out: Minimum Inhibitory Concentration
[13] = tested on: Others Group IV (C. difficile, C. perfringens, P. acne and P. anaerobius); experiment: microbe, parasite or virus in culture; type: cell-based; conditions: read-out: Geometric Mean of MIC, GAM agar, 1 strain each
[14] = tested on: B. fragilis Group III; experiment: In vitro antianaerobic activity in GAM agar (Table 4); type: cell-based; conditions: read-out: Geometric Mean of MIC, GAM agar, lactamase-producing, highly ampicillin-resistant, 2 strains
[15] = tested on: B. fragilis Group II; experiment: as above; type: cell-based; conditions: Bacteroides fragilis, read-out: Geometric Mean of MIC, GAM agar, lactamase-producing, moderately ampicillin-resistant, 3 strains
[16] = tested on: B. fragilis Group I; experiment: as above; type: cell-based; conditions: Bacteroides fragilis, read-out: Geometric Mean of MIC, GAM agar, nonlactamase-producing, ampicillin-sensitive, 3 strains
[17] = Example 4, ceftazidime (mean of 3 experiments)
[18] = Example 5 ceftazidime (mean of 2 experiments)

| Structure (SMILES) | AUC ([3]; 10 mg/kg) [ng·h/mL] | concentration at 10 min ([3]; 10 mg/kg) [ng/mL] | concentration at 20 min ([3]; 10 mg/kg) [ng/mL] | concentration at 0.5 h ([3]; 10 mg/kg) [ng/mL] | concentration at 40 min ([3]; 10 mg/kg) [ng/mL] | concentration at 1 h ([3]; 10 mg/kg) [ng/mL] | concentration at 1.5 h ([3]; 10 mg/kg) [ng/mL] | half-life ([3]; 10 mg/kg) [min] | AUC ([3]; 20 mg/kg) [ng·h/mL] | concentration at 10 min ([3]; 20 mg/kg) [ng/mL] | concentration at 20 min ([3]; 20 mg/kg) [ng/mL] | concentration at 0.5 h ([3]; 20 mg/kg) [ng/mL] | concentration at 40 min ([3]; 20 mg/kg) [ng/mL] | concentration at 1 h ([3]; 20 mg/kg) [ng/mL] | concentration at 1.5 h ([3]; 20 mg/kg) [ng/mL] | half-life ([3]; 20 mg/kg) [min] | MIC [5] [µg/mL] | MIC [7] [µg/mL] | also measured |
| --- | --- | --- | --- | --- | --- | --- | --- | --- | --- | --- | --- | --- | --- | --- | --- | --- | --- | --- | --- |
| CSc1cc[n+](CC2=C(C(=O)[O-])N3C(=O)C(NC(=O)/C(=N\OC(C)(C)C(=O)O)c4csc(N)n4)C3SC2)cc1 (centres unmarked) [Example 2, 7-[(Z)-2-(2-Aminothiazol-4-yl)-2-(2-carboxyprop-2-oxyimino)-acetamido]-3-[(4-methylthiopyridinium)methyl]-3-cephem-4-carboxylate] | 3700 | 4500 | 5100 | 3800 | 3200 | 1100 | 450 | 18 | 10000 | 12000 | 12000 | 9300 | 8700 | 4000 | 1200 | 16 | 0.2 (≈ 0.337 µM) | 12.5 (≈ 21.1 µM) | MIC [1]: 6.3 µg/mL (≈ 10.6 µM); MIC ([2]; A20717, Gn-III, CET-R, read-out: Minimum Inhibitory Concentration): 6.3 µg/mL (≈ 10.6 µM); MIC ([4]; A21675, Anaerobe, CLDM-R, read-out: Minimum Inhibitory Concentration): > 100 µg/mL; MIC [6]: 6.3 µg/mL (≈ 10.6 µM); MIC [8]: 3.1 µg/mL (≈ 5.23 µM); MIC ([9]; A209281, Anaerobe, CET-S, read-out: Minimum Inhibitory Concentration): 3.1 µg/mL (≈ 5.23 µM); MIC [10]: 4.7 µg/mL (≈ 7.93 µM); MIC [11]: 6.3 µg/mL (≈ 10.6 µM); MIC [12]: 0.2 µg/mL (≈ 0.337 µM) |
| CC(C)(O/N=C(\C(=O)N[C@@H]1C(=O)N2C(C(=O)[O-])=C(C[n+]3ccccc3)CS[C@H]12)c1csc(N)n1)C(=O)O [Ceftazidime, ceftazidime, reference compound] | 5500 | 8000 | 7800 | 5500 | 3900 | 1800 | 400 | 16 | 10000 | 18000 | 14000 | 11000 | 7700 | 2400 | 610 | 14 | 0.4 (≈ 0.732 µM) | 12.5 (≈ 22.9 µM) | MIC [13, 17]: 6.2 µg/mL (≈ 11.3 µM); MIC [13, 18]: 8.2 µg/mL (≈ 15 µM); MIC ([2]; A20717, read-out: Minimum Inhibitory Concentration): 6.3 µg/mL (≈ 11.5 µM); MIC [14, 17]: 81 µg/mL (≈ 148 µM); MIC [14, 18]: > 100 µg/mL; MIC ([4]; A21675, read-out: Minimum Inhibitory Concentration): > 100 µg/mL; MIC [15, 17]: 13 µg/mL (≈ 23.8 µM); MIC [15, 18]: 16 µg/mL (≈ 29.3 µM); MIC [16, 17]: 5.3 µg/mL (≈ 9.7 µM); MIC [16, 18]: 8.9 µg/mL (≈ 16.3 µM); MIC ([9]; A209281, read-out: Minimum Inhibitory Concentration): 3.1 µg/mL (≈ 5.67 µM) |
